Consider three compounds from BindingDB's records for doi:10.1016/0024-3205(91)90562-p (Technion-Israel Institute of Technology, 1991).

The target of test [1] is T1, Gamma-aminobutyric acid receptor subunit alpha-1 (Homo sapiens, UniProt P14867).
T1 sequence (P14867 whole entry): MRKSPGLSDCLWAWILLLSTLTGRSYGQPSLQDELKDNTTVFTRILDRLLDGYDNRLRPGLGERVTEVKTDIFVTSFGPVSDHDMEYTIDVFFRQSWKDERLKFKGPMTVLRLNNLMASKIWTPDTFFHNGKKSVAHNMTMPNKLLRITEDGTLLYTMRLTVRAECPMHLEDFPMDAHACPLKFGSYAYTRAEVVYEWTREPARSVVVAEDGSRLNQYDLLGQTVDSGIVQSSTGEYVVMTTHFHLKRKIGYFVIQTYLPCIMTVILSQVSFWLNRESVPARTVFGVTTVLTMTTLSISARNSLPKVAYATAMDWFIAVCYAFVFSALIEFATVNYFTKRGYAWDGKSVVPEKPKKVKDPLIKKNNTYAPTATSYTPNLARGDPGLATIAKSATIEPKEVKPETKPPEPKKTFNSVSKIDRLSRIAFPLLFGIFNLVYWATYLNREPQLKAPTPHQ

The target of test [2] is Gamma-aminobutyric acid receptor subunit alpha-1 (Rattus norvegicus, UniProt P62813).

The structures appear in SMILES notation. Several values for one entry are separate records, joined by “and”; a condition that tells them apart may be missing. Identical values can stand only once.

Sequence of Gamma-aminobutyric acid receptor subunit alpha-1 (Rattus norvegicus, UniProt P62813) (P62813 whole entry): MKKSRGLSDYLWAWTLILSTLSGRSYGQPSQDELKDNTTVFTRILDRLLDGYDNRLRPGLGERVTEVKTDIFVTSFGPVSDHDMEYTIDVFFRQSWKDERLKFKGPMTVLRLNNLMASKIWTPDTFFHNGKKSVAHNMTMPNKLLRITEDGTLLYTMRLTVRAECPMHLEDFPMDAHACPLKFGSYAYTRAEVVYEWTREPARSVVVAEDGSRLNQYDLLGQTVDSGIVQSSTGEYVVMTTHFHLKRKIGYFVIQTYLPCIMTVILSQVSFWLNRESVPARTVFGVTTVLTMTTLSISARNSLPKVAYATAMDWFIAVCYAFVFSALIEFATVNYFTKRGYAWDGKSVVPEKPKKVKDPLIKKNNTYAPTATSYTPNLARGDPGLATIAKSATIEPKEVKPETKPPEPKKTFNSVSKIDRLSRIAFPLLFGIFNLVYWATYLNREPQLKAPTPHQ

One may read the Ki as the equilibrium dissociation constant of an inhibitor or competing ligand from its target. A lower Ki goes with a stronger hold on the target. As for `O=C1CN=C(c2ccccc2Cl)c2cc([N+](=O)[O-])ccc2N1` [5-(2-chlorophenyl)-7-nitro-1,3-dihydro-2H-1,4-benzodiazepin-2-one], the Ki in test [1] and in test [2] was more than 10000 nM each time.

Turning to `CC[C@@H](C)N(C)C(=O)c1cc2ccccc2c(-c2ccccc2Cl)n1` [PK 11195], the inhibition constant Ki was 8 nM and 5 nM in test [1]; 18 nM and 3 nM and 4 nM in test [2].

For `CN1C(=O)CN=C(c2ccc(Cl)cc2)c2cc(Cl)ccc21` [Ro5-4864], the Ki in test [1] was found to be 750 nM.
